Values quoted from earlier work in patent US20210128727A1, “A pharmaceutical combination for use in the treatment of cancer” (Universitätsmedizin der Johannes Gutenberg-Universität Mainz, priority 2018, published 2021).

Molecular target: T1, TLR-9 (Mus musculus, UniProt Q9EQU3)
T1 construct: host or cells: mice (in vivo, endogenous protein)
T1 sequence (Q9EQU3 26-1032): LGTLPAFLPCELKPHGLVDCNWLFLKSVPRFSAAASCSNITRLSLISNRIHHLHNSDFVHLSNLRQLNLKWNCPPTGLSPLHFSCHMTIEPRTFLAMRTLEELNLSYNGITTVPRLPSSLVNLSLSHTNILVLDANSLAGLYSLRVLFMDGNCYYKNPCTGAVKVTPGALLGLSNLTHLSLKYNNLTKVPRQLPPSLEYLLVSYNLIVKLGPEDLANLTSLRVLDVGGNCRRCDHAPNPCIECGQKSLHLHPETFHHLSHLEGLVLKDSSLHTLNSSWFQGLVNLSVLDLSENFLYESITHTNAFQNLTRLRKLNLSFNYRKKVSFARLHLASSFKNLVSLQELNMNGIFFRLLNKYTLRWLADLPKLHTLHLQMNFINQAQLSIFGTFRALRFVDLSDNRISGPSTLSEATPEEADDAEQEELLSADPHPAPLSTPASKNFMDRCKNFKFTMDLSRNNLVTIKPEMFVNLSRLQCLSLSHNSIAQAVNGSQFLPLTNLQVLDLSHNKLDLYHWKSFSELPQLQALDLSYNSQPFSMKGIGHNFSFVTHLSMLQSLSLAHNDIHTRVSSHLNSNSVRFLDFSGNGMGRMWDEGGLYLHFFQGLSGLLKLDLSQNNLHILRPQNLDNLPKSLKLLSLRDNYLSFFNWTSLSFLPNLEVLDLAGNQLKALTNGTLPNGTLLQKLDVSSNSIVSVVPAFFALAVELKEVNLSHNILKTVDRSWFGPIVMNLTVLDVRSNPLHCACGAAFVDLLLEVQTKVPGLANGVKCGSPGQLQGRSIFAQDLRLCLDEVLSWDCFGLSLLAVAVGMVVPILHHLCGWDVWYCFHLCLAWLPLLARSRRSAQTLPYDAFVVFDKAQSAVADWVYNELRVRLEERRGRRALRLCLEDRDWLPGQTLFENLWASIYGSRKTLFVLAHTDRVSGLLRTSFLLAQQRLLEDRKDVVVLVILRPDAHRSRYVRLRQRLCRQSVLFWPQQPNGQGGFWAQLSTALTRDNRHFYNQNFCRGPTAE
Details: mice

For “5′-TCCATGACGTTCCTGATGCT-3′: CpG oligodeoxynucleotide TLR9 agonist produced at Metabion International AG (DNA, all phosphorothioate, methylation of C not given here; listed as Mus musculus)”, the “reversal of regulatory T cell-mediated CD8 tolerance” value is given as “efficiently reverse regulatory T cell-mediated CD8 tolerance”.
